In a compilation of properties of binary mixtures (doi:10.1016/j.jct.2016.12.008):

Experiment: xn = mol fraction of the nth substance listed
Conditions: 100 kPa

Structure (SMILES): O + CC[n+]1ccn(C)c1.N#C[S-]
- viscosity (288.15 K, x1 = 1): 1.13 mPa·s
- viscosity (298.15 K, x1 = 1): 0.89 mPa·s
- viscosity (308.15 K, x1 = 1): 0.72 mPa·s
- viscosity (313.15 K, x1 = 1): 0.65 mPa·s
- viscosity (318.15 K, x1 = 1): 0.6 mPa·s

Structure (SMILES): CC[n+]1ccn(C)c1.N#C[S-] + O
- viscosity (288.15 K, x2 = 0): 34.24 mPa·s
- viscosity (288.15 K, x2 = 0.1006): 27.45 mPa·s
- viscosity (288.15 K, x2 = 0.1948): 21.99 mPa·s
- viscosity (288.15 K, x2 = 0.3026): 18.6 mPa·s
- viscosity (288.15 K, x2 = 0.4011): 15.07 mPa·s
- viscosity (288.15 K, x2 = 0.4979): 12.4 mPa·s
- viscosity (288.15 K, x2 = 0.6043): 9.2 mPa·s
- viscosity (288.15 K, x2 = 0.6887): 7.15 mPa·s
- viscosity (288.15 K, x2 = 0.7981): 4.7 mPa·s
- viscosity (288.15 K, x2 = 0.9105): 2.53 mPa·s
- viscosity (288.15 K, x2 = 0.9506): 1.86 mPa·s
- viscosity (293.15 K, x2 = 0): 27.9 mPa·s
- viscosity (293.15 K, x2 = 0.1948): 18.63 mPa·s
- viscosity (293.15 K, x2 = 0.3026): 15.74 mPa·s
- viscosity (293.15 K, x2 = 0.4011): 12.81 mPa·s
- viscosity (293.15 K, x2 = 0.4979): 10.43 mPa·s
- viscosity (293.15 K, x2 = 0.6043): 7.9 mPa·s
- viscosity (293.15 K, x2 = 0.6887): 6.17 mPa·s
- viscosity (293.15 K, x2 = 0.9443): 1.76 mPa·s
- viscosity (293.15 K, x2 = 0.9506): 1.67 mPa·s
- viscosity (298.15 K, x2 = 0): 22.68 mPa·s
- viscosity (298.15 K, x2 = 0.1006): 18.74 mPa·s
- viscosity (298.15 K, x2 = 0.1948): 15.93 mPa·s
- viscosity (298.15 K, x2 = 0.3026): 13.44 mPa·s
- viscosity (298.15 K, x2 = 0.4011): 10.99 mPa·s
- viscosity (298.15 K, x2 = 0.4979): 8.94 mPa·s
- viscosity (298.15 K, x2 = 0.6043): 6.85 mPa·s
- viscosity (298.15 K, x2 = 0.6887): 5.38 mPa·s
- viscosity (298.15 K, x2 = 0.9105): 2.02 mPa·s
- viscosity (298.15 K, x2 = 0.9443): 1.57 mPa·s
- viscosity (298.15 K, x2 = 0.9506): 1.49 mPa·s
- viscosity (303.15 K, x2 = 0): 19.09 mPa·s
- viscosity (303.15 K, x2 = 0.1006): 16.03 mPa·s
- viscosity (303.15 K, x2 = 0.3026): 11.61 mPa·s
- viscosity (303.15 K, x2 = 0.4979): 7.77 mPa·s
- viscosity (303.15 K, x2 = 0.6043): 6.01 mPa·s
- viscosity (303.15 K, x2 = 0.9105): 1.79 mPa·s
- viscosity (303.15 K, x2 = 0.9443): 1.39 mPa·s
- viscosity (303.15 K, x2 = 0.9506): 1.32 mPa·s
- viscosity (308.15 K, x2 = 0.1006): 13.87 mPa·s
- viscosity (308.15 K, x2 = 0.3026): 10.14 mPa·s
- viscosity (308.15 K, x2 = 0.4011): 8.39 mPa·s
- viscosity (308.15 K, x2 = 0.4979): 6.83 mPa·s
- viscosity (308.15 K, x2 = 0.9105): 1.6 mPa·s
- viscosity (308.15 K, x2 = 0.9443): 1.25 mPa·s
- viscosity (308.15 K, x2 = 0.9506): 1.19 mPa·s
- viscosity (313.15 K, x2 = 0): 14.18 mPa·s
- viscosity (313.15 K, x2 = 0.1948): 10.58 mPa·s
- viscosity (313.15 K, x2 = 0.3026): 8.93 mPa·s
- viscosity (313.15 K, x2 = 0.4011): 7.43 mPa·s
- viscosity (313.15 K, x2 = 0.4979): 6.07 mPa·s
- viscosity (313.15 K, x2 = 0.6043): 4.74 mPa·s
- viscosity (313.15 K, x2 = 0.6887): 3.74 mPa·s
- viscosity (313.15 K, x2 = 0.9443): 1.13 mPa·s
- viscosity (318.15 K, x2 = 0.1006): 10.71 mPa·s
- viscosity (318.15 K, x2 = 0.3026): 7.94 mPa·s
- viscosity (318.15 K, x2 = 0.4011): 6.62 mPa·s
- viscosity (318.15 K, x2 = 0.4979): 5.43 mPa·s
- viscosity (318.15 K, x2 = 0.6043): 4.26 mPa·s
- viscosity (318.15 K, x2 = 0.6887): 3.35 mPa·s
- viscosity (318.15 K, x2 = 0.9105): 1.31 mPa·s
- viscosity (318.15 K, x2 = 0.9443): 1.03 mPa·s
- viscosity (318.15 K, x2 = 0.9506): 0.98 mPa·s
